Data: patent US11999786B2, “Anti-CD48 antibodies, antibody drug conjugates, and uses thereof” (Novartis AG, priority 2020, dated 2024)
Non-standard residues stand in square brackets, D forms with d. Residues, ends and D or L forms follow the SMILES beside them. *: point of attachment. Dolaproine = CO[C@@H]([C@@H]1CCCN1)[C@@H](C)C(=O)O; Dil = CC[C@H](C)[C@H](NC)[C@@H](CC(=O)O)OC; X1 = C[C@@H](N*)[C@@H](O)c1ccccc1; NMeV = CN[C@H](C(=O)O)C(C)C

Tests used:
Assay type in all cases: cell-based
KMS-21-BM = assay: Internalization and cell proliferation assay (CellTiter-Glo, with secondary anti-human Fc-VC-MMAE ADC)
Method: (§1) The internalization activity of CD48 antibodies were tested against three endogenous cancer cell lines: KMS-27: JCRB No. JCRB1188 cultured in RPMI-1640+10% FBS; NCI-H929: ATCC No. CRL-9068 cultured in RPMI-1640+10% FBS+0.05 mM 2-mercaptoethanol; and KMS-21-BM: JCRB No. JCRB1185 cultured in RPMI-1640+10% FBS.
(§2) CD48 antibodies were synthesized and expressed generally as described in Example 5. Cell lines were cultured in media that is optimal for their growth at 5% CO2, 37° C. in a tissue culture incubator. Prior to seeding for the proliferation assay, the cells were split at least 2 days before the assay to ensure optimal growth density. On the day of seeding, cell viability and cell density were determined using a cell counter (Vi-Cell XR Cell Viability Analyzer, Beckman Coulter). Cells with higher than 85% viability were seeded in white clear bottom 384-well TC treated plates (Corning cat. #3765). Cells were seeded at a density of 1,000 cells per well in 40 μL of standard growth media. Plates were incubated at 5% CO2, 37° C. overnight in a tissue culture incubator. The next day free MMAE payload, a CD48A-CysMab-VC-MMAE ADC (synthesis described in Example 5), CD48 antibodies, and a non-targeting isotype antibody were prepared at 10× in standard growth media. The MMAE free payload and CD48A-CysMab-VC-MMAE ADC were added to the cells resulting in final concentrations of 0.007-150 nM and a final volume of 50 μL per well. The prepared antibody treatments, including CD48 IgGs and a non-targeting isotype antibody, were then added to the cells resulting in final concentrations of 0.001-20 nM and a final volume of 45 μL per well. An anti-human Fc-VC-MMAE ADC (DAR2.0) was prepared at 10× in standard growth media. The prepared ADC was then added to the cells resulting in a final concentration of 60 nM and a final volume of 50 μL per well. Each drug concentration was tested in quadruplets. Plates were incubated at 5% CO2, 37° C. for 5 days in a tissue culture incubator, after which cell viability was assessed through the addition of 25 μL of CellTiter Glo® (Promega, cat #G7573), a reagent which lyses cells and measures total adenosine triphosphate (ATP) content. Plates were incubated at room temperature for 10 minutes to stabilize luminescent signals prior to reading using a luminescence reader (EnVision Multilabel Plate Reader, PerkinElmer). To evaluate the effect of the drug treatments, luminescent counts from wells containing untreated cells (100% viability) were used to normalize treated samples. A variable slope model was applied to fit a nonlinear regression curve to the data in GraphPad PRISM version 7.02 software. IC50 and Amax values were extrapolated from the resultant curves.
(§3) The dose response curves of representative cancer cell lines are shown in FIG. 2A (KMS-27), FIG. 2B (NCI-H929), and FIG. 2C (KMS-21-BM).

NCI-H929 = assay: as above
Method: as §1, §2, §3

KMS-27 = assay: as above; conditions: KMS-27, CellTiter-Glo
Method: as §1, §2, §3

[1] = tested on: KMS-27, NCI-H929 and KMS-21-BM cancer cell lines; assay: Internalization and cell proliferation assay, statements across the three cancer cell lines; conditions: range across the three cell lines; dosed directly, 5 days, CellTiter-Glo
Method: as §1
CD48 antibodies were synthesized and expressed generally as described in Example 5. Cell lines were cultured in media that is optimal for their growth at 5% CO2, 37° C. in a tissue culture incubator. Prior to seeding for the proliferation assay, the cells were split at least 2 days before the assay to ensure optimal growth density. On the day of seeding, cell viability and cell density were determined using a cell counter (Vi-Cell XR Cell Viability Analyzer, Beckman Coulter). Cells with higher than 85% viability were seeded in white clear bottom 384-well TC treated plates (Corning cat. #3765). […] Plates were incubated at 5% CO2, 37° C. for 5 days in a tissue culture incubator, after which cell viability was assessed through the addition of 25 μL of CellTiter Glo® (Promega, cat #G7573), a reagent which lyses cells and measures total adenosine triphosphate (ATP) content. Plates were incubated at room temperature for 10 minutes to stabilize luminescent signals prior to reading using a luminescence reader (EnVision Multilabel Plate Reader, PerkinElmer). […]

## CC[C@H](C)[C@@H]([C@@H](CC(=O)N1CCC[C@H]1[C@H](OC)[C@@H](C)C(=O)N[C@H](C)[C@@H](O)c1ccccc1)OC)N(C)C(=O)[C@@H](NC(=O)[C@@H](NC)C(C)C)C(C)C [MMAE] (H-[NMeV]V[Dil][Dolaproine]-X1)
KMS-21-BM
  IC50: 0.024 nM
  Span (Amax): 72.9
NCI-H929
  IC50: 0.116 nM
  Span (Amax): 88.5
KMS-27
  IC50: 0.021 nM
  Span (Amax): 83.9
[1]
  IC50: 0.021 to 0.116 nM
